{"source": "patent US20210113492A1", "about": "“METHOD FOR INHIBITING PROLIFERATION AND METASTASIS OF CANCER CELLS BY USING NAPHTHOQUINONE DERIVATIVE” (National Tsing Hua University, priority 2019, published 2021)", "key": {"OC3-IV2 cells": {"test_system": "OC3-IV2 cells", "assay": "Oral orthotopic OC3-IV2 xenograft mice model", "assay_type": "in vivo, CB17/lcr-Prkdc^scid/CrlNarl mice", "conditions": "2 mg/kg intraperitoneal once every 3 days, day 0-18", "method": "In this example, the anti-tumor effect of isoplumbagin in xenograft mice model was explored. In oral orthotopic xenograft CB17/lcr-Prkdc^scid/CrlNarl mice model, 1×10^6 OC3-IV2 cells were harvested and re-suspended in 100 μl PBS. The cells were injected through the oral buccal mucosa into six-week-old male CB17/lcr-Prkdc^scid/CrlNarl mice (National Laboratory Animal Center, Taiwan). When the tumor size in oral buccal reached approximately 25 mm^3 at 14 days after inoculation of the OC3-IV2 cells, mice were randomly assigned into two groups (n=3 per group): vehicle (DMSO) control group and 2 mg/kg isoplumbagin group. Treatments were given via intraperitoneal injection once every 3 days in the morning for 2 weeks. During this period, mice weights and tumor volumes (length×width^2/2) were recorded every 3 days. At the end of the study (on day 18), the mice were sacrificed by carbon dioxide asphyxiation. […]\nFIGS. 7A-7D show the anti-tumor effect of isoplumbagin in xenograft mice model. […] Tumor volume (FIG. 7A) and body weight (FIG. 7B) were measured from day 0-18 after treatment. […]"}, "[1]": {"test_system": "human non-small cell lung carcinoma cells (H1299)", "assay": "Boyden chamber invasion assay, H1299", "assay_type": "cell-based", "conditions": "2.5, 5 and 10 μM, 24 h, dose dependency (FIG. 2C)", "method": "Cells were harvested by […] and resuspended in a serum-free medium with 0.1% BSA. Then, […] of cell suspension (2×10^5 cells) was seeded into the upper insert of SPLInsert with Polyethylene terephthalate (PET) membrane (pore size: 8.0 μm) (SPL Lifesciences, Korea) pre-coated with matrigel (BD Biosciences, San Jose, Calif.). The bottom well of 24-well plate of SPLInsert was filled with cell medium containing 10% FBS with different concentrations of isoplumbagin (5, 7.5 and 10 μM, Experimental group of oral squamous cell carcinoma cells (OC3-IV2); 2.5, 5 and 10 μM, Experimental groups of human primary glioblastoma cells (U87), human non-small cell lung carcinoma cells (H1299), human prostate cancer cells (PC3) and human cervical cancer cells (Hela)) or without isoplumbagin (DMSO added). […] Number of cells was counted using Image J. Relative invasion ability was calculated as cell number per area.\nFIGS. 2A-2E show the inhibitory effect of different doses of isoplumbagin on invasion for oral squamous cell carcinoma cells (OC3-IV2), human primary glioblastoma cells (U87), human non-small cell lung carcinoma cells (H1299), prostate cancer cells (PC3) and cervical cancer cells (Hela) assessed with the Boyden chamber assays. *Compared with solvent control (DMSO). […]"}, "[2]": {"test_system": "human primary glioblastoma cells (U87)", "assay": "Mitochondrial morphology and distribution by immunofluorescence staining, U87", "assay_type": "cell-based", "conditions": "1 μM or 2.5 μM, 24 hours, anti-TOM20 staining", "method": "(§1) The effects of isoplumbagin on mitochondrial morphology and distribution of OC3-IV2, U87, H1299 and PC3 cell lines were measured by immunofluorescence staining After OC3-IV2, U87, H1299, and PC3 cells were treated with DMSO, 1 μM, or 2.5 μM isoplumbagin for 24 hours, cells were fixed by 4% (v/v) paraformaldehyde and permeabilized by 0.1% (v/v) Triton X-100. Cells were incubated in blocking buffer containing 1% bovine serum albumin. After blocking, cells were incubated overnight with indicated primary antibodies against TOM20 (a mitochondria marker, sc-11415, Santa Cruz), and then incubated with Alexa Fluor 488-conjugated secondary antibodies (A11001, Invitrogen). Nucleus was stained with DAPI, actin was stained with rhodamine phalloidin (A12379, Invitrogen) and cells were mounted using Prolong Gold reagent (P36930, Invitrogen). 63 images were taken by LSM800 confocal microscopes (Zeiss).\n(§2) FIGS. 5A-5D show the effect of isoplumbagin on mitochondrial morphogenesis and distribution of oral squamous cell carcinoma cells (OC3-IV2), human primary glioblastoma cells (U87), human non-small cell lung carcinoma cells (H1299) and human prostate cancer cells (PC3). Cells treated with either solvent control (DMSO) or isoplumbagin were determined by immunofluorescence staining using anti-TOM20 (mitochondria, green) antibody, rhodamine phalloidin (actin, red) and DAPI (nucleus, blue). […]"}, "[3]": {"test_system": "human non-small cell lung carcinoma cells (H1299)", "assay": "Mitochondrial morphology and distribution by immunofluorescence staining, H1299", "assay_type": "cell-based", "conditions": "1 μM or 2.5 μM, 24 hours, anti-TOM20 staining", "method": "as §1, §2"}}}
{"smiles": "CC1=CC(=O)c2cccc(O)c2C1=O", "note": "[isoplumbagin, 5-hydroxy-3-methyl-1,4-naphthoquinone]", "values": [{"measurement": "tumor growth (tumor volume, tumor weight)", "setting": "OC3-IV2 cells", "result": "can effectively inhibit tumor growth"}, {"measurement": "cancer cells migrating through the membrane (invasion)", "setting": "[1]", "result": "decrease significantly"}, {"measurement": "mitochondrial morphogenesis and distribution", "setting": "[2]", "result": "can alter the mitochondrial morphogenesis and distribution"}, {"measurement": "mitochondrial morphogenesis and distribution", "setting": "[3]", "result": "can alter the mitochondrial morphogenesis and distribution"}]}
